Data on three molecules can be found in article PMC11641365, “Evaluation of In Vitro Biological Activity of Flavanone/Chromanone Derivatives: Molecular Analysis of Anticancer Mechanisms in Colorectal Cancer” (International Journal of Molecular Sciences, 2024).

The test system of one data set is HT-29. Kind of data set: MTT cell viability assay. As to conditions: for IC50: HT-29, 24 h incubation with compound, mean ± SD of three experiments, read-out: Cytotoxic effect, IC50; for IC50 difference, HT-29 vs other cell lines: HT-29, difference of IC50 values, read-out: IC50 in HT-29 higher compared to the other cell lines. The format is cell-based, human. How it is done:
(§1) The cytotoxic activity of the 3-benzylideneflavanones, 3-benzylidenechromanones derivatives (compounds 1, 2, 3, 4, 5) and 5′-(3-methoxyphenyl)-2-phenyl-4′,5′-dihydro-4H-spiro[chromano-3,3′-pirazol]-4-one (compound 3a) was evaluated using the MTT assay (4,5-dimethylthiazol-2-yl)-2,5-diphenyltetrazoliumbromide), a colorimetric method that quantifies cell viability.
(§2) Cell viability was determined using the metabolic microplate spectrophotometric assay with Methylthiazolyl diphenyltetrazolium bromide (MTT) (Sigma-Aldrich; St. Louis, MO, USA). The MTT method belongs to metabolic tests for determining cell viability and consists of measuring the absorbance of a violet solution of formazan, a product of the reduction of a water-soluble yellow MTT by oxidoreductive enzymes (mainly mitochondrial succinate dehydrogenase) of living cells. The amount of the reaction product (water-insoluble formazan crystals) is proportional to the number of living and metabolically active cells in the sample. In the case of damaged or dead cells, formazan is formed in smaller amounts, or it is not formed.
(§3) The appropriate number of cells for a given cell line (6–8 × 10^3 cells/mL) were seeded onto colorless, sterile 96-well microplates (Nunc, Roskilde, Denmark) in the number appropriate for a given cell line. After 24 h of culture, various concentrations of the studied compounds (10^−7–10^−5 M) freshly prepared in DMSO (final concentration DMS < 0.1%) and diluted with complete culture medium were added and incubated in a CO2 incubator for 24 h. After this time, the medium was removed; the cell monolayer was washed twice with sterile PBS solution; and fresh culture medium was added to the microplate wells. After 48 h of cell culture, the MTT test was performed. A volume of 50 μL of tetrazolium salt solution (final concentration 0.05 mg/mL) was added to each microplate well. The microplate was placed for 3–4 h (depending on the cell line) in a CO2 incubator. After incubation, 100 μL of DMSO was added to the wells of the microplate to dissolve the purple formazan crystals formed in the living cell environment. The absorbance of the formazan solution, after gentle mixing, was read at a wavelength of λ = 580 nm and a reference wavelength of λ = 720 nm (Biotek Power Wave HT, Biotek Instruments, Winooski, VT, USA). The percentage of living cells was calculated by comparing the absorbance value of the tested samples with the absorbance value of the control (cells not treated with compounds). The absorbance of the control was taken as 100%.
For orientation: Tetrazolium assays rely on reduction of a dye to a coloured formazan, in cell work by metabolically active cells.

The next data set has as its system Caco-2. Kind of data set: MTT cell viability assay. The format is cell-based, human. As to conditions: 24 h incubation with compound, mean ± SD of three experiments, read-out: Cytotoxic effect, IC50. How it is done:
as §1, §2, §3

The next data set relates to LoVo. Kind of data set: Intracellular GSH level, monochlorobimane (MCB) probe. The format is cell-based, human. As to conditions: compound at IC50, 24 h, vs control. The protocol:
(§4) The spectrofluorimetric method with monochlorobimane (MCB; Sigma-Aldrich; St. Louis, MO, USA) was used to determine GSH. Monochlorobimane reacts with glutathione in a reaction catalyzed by cellular glutathione S-transferase. The reaction produces a fluorescent bimane-glutathione conjugate (GSH-MCB). A major advantage of MCB is its ability to penetrate the cell membrane, which is why it is used as a probe to determine the amount of GSH in living cells.
(§5) Cells were seeded in black 96-well fluorometric microplates at a density of 10 × 10^3 cells/mL. […] Following compound incubation, the medium was removed, and the cell monolayers were washed twice with HBSS (140 mM NaCl, 5 mM KCl, 0.8 mM MgCl2, 1.8 mM CaCl2, 1 mM Na2HPO4, 10 mM HEPES, and 1% glucose). A solution of MCB at a final concentration of 40 μM was added to each well and incubated in a CO2 cell culture incubator at 37 °C for 20 min. A 40 mM MCB stock solution was prepared by dissolving 9 mg of the reagent in 1 mL of absolute ethanol. Fluorescence was measured using a Perkin-Elmer LS-5B spectrofluorometer (Waltham, MA, USA) at the following excitation and fluorescence emission wavelengths: λex = 380 nm/λem = 470 nm. After incubation with MCB, the cells were lysed with 50 μL of lysis buffer (10 mM TRIS-HCl; pH 8 containing 0.1% Triton X-100). In order to normalize the number of cells in individual samples, the amount of DNA was determined by adding 50 μL of ethidium bromide (EB, final concentration 0.2 mM) to each well after measuring the MCB fluorescence and measuring the EB fluorescence at an excitation wavelength of λex = 530 nm and an emission wavelength of λem = 590 nm. The results obtained using the standard curve were converted to nM of GSH.

Another data set has as its system SW620. The data set is described as above. Type of data set: cell-based, human. As to conditions: compound at IC50, 24 h, vs control. How it is done:
as §4, §5

Data set [1] relates to human colon cancer cell lines: HCT 116, SW620, LoVo, Caco-2, and HT-29. In words: MTT cell viability assay, statements across the panel. The format is cell-based. To be noted: range over the cancer cell lines, read-out: IC50 range against colon cancer cell lines. The protocol: The cytotoxic activity of the 3-benzylideneflavanones, 3-benzylidenechromanones derivatives (compounds 1, 2, 3, 4, 5) and 5′-(3-methoxyphenyl)-2-phenyl-4′,5′-dihydro-4H-spiro[chromano-3,3′-pirazol]-4-one (compound 3a) was evaluated using the MTT assay (4,5-dimethylthiazol-2-yl)-2,5-diphenyltetrazoliumbromide), a colorimetric method that quantifies cell viability. […] These IC50 values were subsequently used for all experiments investigating the anticancer activity of the flavanone/chromanone derivatives in this study.
as §2
as §3, with “100%. […] Moreover, cisplatin (Sigma-Aldrich, St. Louis, MO, USA) was used as a reference compound, and identical incubation conditions were used as described above.” for “100%.”

Molecules are shown by their SMILES. Like-named read-outs stand apart in the source and are kept apart here.

A word on the IC50: it is the concentration at which inhibition is half-maximal. As for `O=C1/C(=C/c2ccccc2)COc2ccccc21` [Compound 1], the IC50 was 21.1 ± 1.3 µM with HT-29 (Homo sapiens, HT-29, 24 h); 10.2 ± 1.8 µM with Caco-2 (Homo sapiens, Caco-2, 24 h); 8 to 30 µM in data set [1] (Homo sapiens); 8 to 20 µM in data set [1]. In addition, in the data set on HT-29 (Homo sapiens), the IC50 difference, HT-29 vs other cell lines is ~10 µM. Besides, the “Decrease in GSH levels” value with LoVo was 30–35%; in the data set on SW620, 40%.
As to `COc1cccc(/C=C2/C(=O)c3ccccc3OC2c2ccccc2)c1` (stereo not drawn) [Compound 3], the half-maximal inhibitory concentration (IC50) in the data set on HT-29 is 117 ± 6.1 µM; in the data set on HT-29 (Homo sapiens, HT-29, 24 h) it was ~115 µM; in the data set with Caco-2 it was 69.9 ± 5.1 µM; in the data set on Caco-2 (Homo sapiens, Caco-2, 24 h) it was ~70 µM; in data set [1] (Homo sapiens), 8 to 30 µM. Besides, the “Decrease in GSH levels” value in the data set on LoVo is 30–35%; with SW620, 30%.
Take `O=C1/C(=C/c2ccccc2)C(c2ccccc2)Oc2ccccc21` (stereo not drawn) [Compound 5]: the IC50 in the data set with HT-29 (Homo sapiens, HT-29, 24 h) was 31.1 ± 1.4 µM; in the data set on Caco-2 it was 72.1 ± 1.7 µM; with Caco-2 (Homo sapiens, Caco-2, 24 h) it was ~70 µM; in data set [1] (Homo sapiens), 8 to 30 µM. The IC50 difference, HT-29 vs other cell lines with HT-29 (Homo sapiens) was ~10 µM. In addition, the entries for the “Decrease in GSH levels” value in the data set on LoVo and with SW620 were 30–35% and 30%, respectively.
